From PubChem BioAssay AID651986 (The Scripps Research Institute Molecular Screening Center, 2013)
Active and inactive are the calls of the source. No rule for the calls is given here.

Tests used:
Assay in all cases: in situ LYPLA1 and LYPLA2 inhibition, late-stage follow-up, gel-based ABPP, fluorescence, HEK293T, murine T cells (AID 651986)
[1] = target: Acyl-protein thioesterase 1 (Homo sapiens) (UniProt O75608); details: HEK293T or murine T cells, NHU5 gel-based ABPP, LYPLA1 HEK293T cells, at 5 µM, hits give high values
[2] = target: Acyl-protein thioesterase 2 (Homo sapiens) (UniProt O95372); details: HEK293T or murine T cells, NHU5 gel-based ABPP, LYPLA2 HEK293T cells, at 5 µM, hits give high values
LYPLA1 murine T cells = details: HEK293T or murine T cells, NHU5 gel-based ABPP, at 5 µM, hits give high values
LYPLA2 murine T cells = details: HEK293T or murine T cells, NHU5 gel-based ABPP, at 5 µM, hits give high values

Sequence of Acyl-protein thioesterase 2 (Homo sapiens) (O95372 whole entry, looked up): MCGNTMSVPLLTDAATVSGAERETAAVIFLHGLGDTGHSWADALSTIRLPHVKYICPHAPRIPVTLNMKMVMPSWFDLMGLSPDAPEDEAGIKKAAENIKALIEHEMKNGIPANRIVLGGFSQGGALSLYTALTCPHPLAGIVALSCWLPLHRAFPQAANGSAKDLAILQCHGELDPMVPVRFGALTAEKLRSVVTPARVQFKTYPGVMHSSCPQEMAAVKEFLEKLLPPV
Sequence of Acyl-protein thioesterase 1 (Homo sapiens) (O75608 whole entry, looked up): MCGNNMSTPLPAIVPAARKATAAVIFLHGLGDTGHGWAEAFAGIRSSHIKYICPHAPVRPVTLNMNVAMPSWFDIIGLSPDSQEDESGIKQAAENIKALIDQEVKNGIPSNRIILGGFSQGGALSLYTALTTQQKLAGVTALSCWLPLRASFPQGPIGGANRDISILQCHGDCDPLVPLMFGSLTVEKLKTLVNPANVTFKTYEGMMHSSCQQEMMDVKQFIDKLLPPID

Row | inhibition [1] | inhibition [2] | inhibition (LYPLA1 murine T cells) | inhibition (LYPLA2 murine T cells) | Structure (SMILES)
1 | 100% | 0% (inactive) | 100% | 0% (inactive) | O=C(CN1CCN(C(=O)c2ccco2)CC1)Nc1cc(C(F)(F)F)ccc1Cl
2 | 0% (inactive) | 100% | 0% (inactive) | 100% | COc1ccc(N2CCN(C(=O)c3cc4c(s3)-c3ccccc3S(=O)(=O)C4)CC2)cc1
